Measured values reported in ChEMBL document CHEMBL3885881, “DrugMatrix”.

Species: Rattus norvegicus
Assay: DrugMatrix - Regimen: Daily Repeat
Type: toxicity, organism-based, Sprague-Dawley
Set-up: regimen Daily Repeat, gender Male, age 6-8 weeks
Settings: in vivo, po, route oral GAVAGE, vehicle .5 % CMC; for ABSOLUTE BASOPHIL / ABSOLUTE EOSINOPHIL / ABSOLUTE LYMPHOCYTE / ABSOLUTE MONOCYTE / ABSOLUTE SEGMENTED NEUTROPHIL / BASOPHIL / EOSINOPHIL / ERYTHROCYTE COUNT / HEMATOCRIT / HEMOGLOBIN / LEUKOCYTE COUNT / LYMPHOCYTE / MEAN CORPUSCULAR HEMOGLOBIN / MEAN CORPUSCULAR HEMOGLOBIN CONCENTRATION / MEAN CORPUSCULAR VOLUME / MONOCYTE / NEUTROPHIL / NUCLEATED RED BLOOD CELLS / PLATELET COUNT: tissue Blood; for ALANINE AMINOTRANSFERASE / ALBUMIN / ALKALINE PHOSPHATASE / ASPARTATE AMINOTRANSFERASE / BLOOD UREA NITROGEN / CARBON DIOXIDE / CHLORIDE / CHOLESTEROL / CREATINE PHOSPHOKINASE / CREATININE / GLUCOSE / LACTATE DEHYDROGENASE / LIPASE / PHOSPHORUS / POTASSIUM / SODIUM / TOTAL BILIRUBIN / TOTAL PROTEIN / URIC ACID: tissue Plasma
[1] = 0 mg/kg, 72 h, dose level Control, time 3 day
[2] = 0 mg/kg, 120 h, dose level Control, time 5 day
[3] = 100 mg/kg, 72 h, dose level Low, time 3 day

## CCc1ccc(C(=O)C(C)CN2CCCCC2)cc1 (centres undefined) [EPERISONE]
[1]
  ABSOLUTE BASOPHIL: 0 CELLS/uL
  ABSOLUTE EOSINOPHIL: 284.5 CELLS/uL
  ABSOLUTE LYMPHOCYTE: 11670.5 CELLS/uL
  ABSOLUTE MONOCYTE: 420.83 CELLS/uL
  ABSOLUTE SEGMENTED NEUTROPHIL: 1024.17 CELLS/uL
  BASOPHIL: 0%
  EOSINOPHIL: 1.67%
  ERYTHROCYTE COUNT: 5.38 x10E6/uL
  HEMATOCRIT: 34.05%
  HEMOGLOBIN: 12.75 G/DL
  LEUKOCYTE COUNT: 13.4 x10E3/uL
  LYMPHOCYTE: 88.33%
  MEAN CORPUSCULAR HEMOGLOBIN: 23.73 pg
  MEAN CORPUSCULAR HEMOGLOBIN CONCENTRATION: 37.43 G/DL
  MEAN CORPUSCULAR VOLUME: 63.4 fL
  MONOCYTE: 2.83%
  NEUTROPHIL: 7.17%
  NUCLEATED RED BLOOD CELLS: 0 /100WBC
  PLATELET COUNT: 1184.67 x10E3/uL
  ALANINE AMINOTRANSFERASE: 45.33 u/L
  ALBUMIN: 4.3 G/DL
  ALKALINE PHOSPHATASE: 388.83 u/L
  ASPARTATE AMINOTRANSFERASE: 84.83 u/L
  BLOOD UREA NITROGEN: 15.5 mg/dL
  CARBON DIOXIDE: 27 mmol/L
  CHLORIDE: 101.8 MEQ/L
  CHOLESTEROL: 76.67 mg/dL
  CREATINE PHOSPHOKINASE: 301 u/L
  CREATININE: 0.21 mg/dL
  GLUCOSE: 168.83 mg/dL
  LACTATE DEHYDROGENASE: 294.83 u/L
  LIPASE: 9.8 u/L
  PHOSPHORUS: 13.25 mg/dL
  POTASSIUM: 6.41 MEQ/L
  SODIUM: 143.72 MEQ/L
  TOTAL BILIRUBIN: 0.22 mg/dL
  TOTAL PROTEIN: 5.98 G/DL
  URIC ACID: 1.5 mg/dL
[2]
  ABSOLUTE BASOPHIL: 0 CELLS/uL
  ABSOLUTE EOSINOPHIL: 190.67 CELLS/uL
  ABSOLUTE LYMPHOCYTE: 12549.5 CELLS/uL
  ABSOLUTE MONOCYTE: 276 CELLS/uL
  ABSOLUTE SEGMENTED NEUTROPHIL: 1067.17 CELLS/uL
  BASOPHIL: 0%
  EOSINOPHIL: 1.33%
  ERYTHROCYTE COUNT: 5.66 x10E6/uL
  HEMATOCRIT: 35.92%
  HEMOGLOBIN: 13.65 G/DL
  LEUKOCYTE COUNT: 14.08 x10E3/uL
  LYMPHOCYTE: 89%
  MEAN CORPUSCULAR HEMOGLOBIN: 24.12 pg
  MEAN CORPUSCULAR HEMOGLOBIN CONCENTRATION: 38.03 G/DL
  MEAN CORPUSCULAR VOLUME: 63.47 fL
  MONOCYTE: 2%
  NEUTROPHIL: 7.67%
  NUCLEATED RED BLOOD CELLS: 0.17 /100WBC
  PLATELET COUNT: 1251.67 x10E3/uL
  ALANINE AMINOTRANSFERASE: 43.33 u/L
  ALBUMIN: 4.22 G/DL
  ALKALINE PHOSPHATASE: 365.67 u/L
  ASPARTATE AMINOTRANSFERASE: 83.67 u/L
  BLOOD UREA NITROGEN: 18.17 mg/dL
  CARBON DIOXIDE: 28.67 mmol/L
  CHLORIDE: 103.5 MEQ/L
  CHOLESTEROL: 71.5 mg/dL
  CREATINE PHOSPHOKINASE: 284.5 u/L
  CREATININE: 0.21 mg/dL
  GLUCOSE: 161.67 mg/dL
  LACTATE DEHYDROGENASE: 259.67 u/L
  LIPASE: 9.5 u/L
  PHOSPHORUS: 12.45 mg/dL
  POTASSIUM: 6.49 MEQ/L
  SODIUM: 144.25 MEQ/L
  TOTAL BILIRUBIN: 0.2 mg/dL
  TOTAL PROTEIN: 6.1 G/DL
  URIC ACID: 1.73 mg/dL
[3]
  ABSOLUTE BASOPHIL: 0 CELLS/uL
  ABSOLUTE EOSINOPHIL: 0 CELLS/uL
  ABSOLUTE LYMPHOCYTE: 7799.67 CELLS/uL
  ABSOLUTE MONOCYTE: 242.67 CELLS/uL
  ABSOLUTE SEGMENTED NEUTROPHIL: 691 CELLS/uL
  BASOPHIL: 0%
  EOSINOPHIL: 0%
  ERYTHROCYTE COUNT: 5.44 x10E6/uL
  HEMATOCRIT: 34.63%
  HEMOGLOBIN: 12.8 G/DL
  LEUKOCYTE COUNT: 8.73 x10E3/uL
  LYMPHOCYTE: 89.33%
  MEAN CORPUSCULAR HEMOGLOBIN: 23.6 pg
  MEAN CORPUSCULAR HEMOGLOBIN CONCENTRATION: 36.97 G/DL
  MEAN CORPUSCULAR VOLUME: 63.73 fL
  MONOCYTE: 2.67%
  NEUTROPHIL: 8%
  NUCLEATED RED BLOOD CELLS: 0 /100WBC
  PLATELET COUNT: 1233.67 x10E3/uL
  ALANINE AMINOTRANSFERASE: 50 u/L
  ALBUMIN: 4.33 G/DL
  ALKALINE PHOSPHATASE: 470.67 u/L
  ASPARTATE AMINOTRANSFERASE: 82 u/L
  BLOOD UREA NITROGEN: 13.67 mg/dL
  CARBON DIOXIDE: 29.33 mmol/L
  CHLORIDE: 101.5 MEQ/L
  CHOLESTEROL: 90.33 mg/dL
  CREATINE PHOSPHOKINASE: 213.33 u/L
  CREATININE: 0.21 mg/dL
  GLUCOSE: 138.33 mg/dL
  LACTATE DEHYDROGENASE: 128.67 u/L
  LIPASE: 9 u/L
  PHOSPHORUS: 11.63 mg/dL
  POTASSIUM: 6.14 MEQ/L
  SODIUM: 146.7 MEQ/L
  TOTAL BILIRUBIN: 0.3 mg/dL
  TOTAL PROTEIN: 6.07 G/DL
  URIC ACID: 0.97 mg/dL
